# Experimental data: ChEMBL document CHEMBL1138396, “Constrained azacyclic analogues of the immunomodulatory agent FTY720 as molecular probes for sphingosine 1-phosphate receptors” (Bioorg Med Chem Lett, 2007)
# Assays:
# [1] = target: T1, Sphingosine kinase 2 (Homo sapiens) (UniProt Q9NRA0); experiment: Effect on rate of phosphorylation of human recombinant SPHK2 expressed in HEK293 cells; assay type: cell-based
# T1 sequence (whole entry): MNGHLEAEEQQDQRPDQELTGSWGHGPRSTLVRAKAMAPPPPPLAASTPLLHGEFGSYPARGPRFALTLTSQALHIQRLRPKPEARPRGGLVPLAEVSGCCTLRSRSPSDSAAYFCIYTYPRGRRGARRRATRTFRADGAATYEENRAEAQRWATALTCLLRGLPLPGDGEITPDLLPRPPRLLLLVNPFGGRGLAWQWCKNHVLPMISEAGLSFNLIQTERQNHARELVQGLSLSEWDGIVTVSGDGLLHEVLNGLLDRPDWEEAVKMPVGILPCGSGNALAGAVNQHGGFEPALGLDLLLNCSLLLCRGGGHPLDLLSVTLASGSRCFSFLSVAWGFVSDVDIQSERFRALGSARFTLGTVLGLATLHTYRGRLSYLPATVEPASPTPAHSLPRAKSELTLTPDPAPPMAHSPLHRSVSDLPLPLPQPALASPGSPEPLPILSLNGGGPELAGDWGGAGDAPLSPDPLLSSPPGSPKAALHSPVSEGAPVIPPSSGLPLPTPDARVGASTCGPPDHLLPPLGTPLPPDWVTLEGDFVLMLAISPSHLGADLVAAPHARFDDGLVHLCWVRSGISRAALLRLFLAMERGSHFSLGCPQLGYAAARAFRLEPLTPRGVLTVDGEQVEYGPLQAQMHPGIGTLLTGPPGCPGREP
# [2] = target: T2, Sphingosine 1-phosphate receptor 4 (Homo sapiens, UniProt O95977); experiment: Activity at human recombinant S1P4 receptor expressed in CHO cells assessed as increase in calcium release by FLIPR assay; assay type: functional, cell-based
# T2 sequence (O95977 whole entry): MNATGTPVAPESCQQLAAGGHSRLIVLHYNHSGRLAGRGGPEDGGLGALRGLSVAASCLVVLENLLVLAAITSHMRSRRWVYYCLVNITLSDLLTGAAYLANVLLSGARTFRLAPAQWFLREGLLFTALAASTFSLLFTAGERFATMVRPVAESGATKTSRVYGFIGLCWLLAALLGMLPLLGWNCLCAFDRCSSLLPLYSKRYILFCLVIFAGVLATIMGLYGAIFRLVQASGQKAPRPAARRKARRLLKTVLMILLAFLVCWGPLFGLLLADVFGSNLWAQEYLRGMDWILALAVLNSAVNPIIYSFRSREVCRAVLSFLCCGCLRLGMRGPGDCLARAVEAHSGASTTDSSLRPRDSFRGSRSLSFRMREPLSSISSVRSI
# [3] = target: Sphingosine 1-phosphate receptor 3 (Homo sapiens, UniProt Q99500); experiment: Activity at human recombinant S1P3 receptor expressed in CHO cells assessed as increase in calcium release by FLIPR assay; assay type: functional, cell-based
# [4] = target: Sphingosine 1-phosphate receptor 5 (Homo sapiens, UniProt Q9H228); experiment: Activity at human recombinant S1P5 receptor expressed in CHO cells assessed as increase in calcium release by FLIPR assay; assay type: functional, cell-based
# [5] = target: Sphingosine 1-phosphate receptor 1 (Homo sapiens, UniProt P21453); experiment: Activity at human recombinant S1P1 receptor expressed in CHO cells assessed as increase in calcium release by FLIPR assay; assay type: functional, cell-based
# Sequence of Sphingosine 1-phosphate receptor 1 (P21453 whole entry): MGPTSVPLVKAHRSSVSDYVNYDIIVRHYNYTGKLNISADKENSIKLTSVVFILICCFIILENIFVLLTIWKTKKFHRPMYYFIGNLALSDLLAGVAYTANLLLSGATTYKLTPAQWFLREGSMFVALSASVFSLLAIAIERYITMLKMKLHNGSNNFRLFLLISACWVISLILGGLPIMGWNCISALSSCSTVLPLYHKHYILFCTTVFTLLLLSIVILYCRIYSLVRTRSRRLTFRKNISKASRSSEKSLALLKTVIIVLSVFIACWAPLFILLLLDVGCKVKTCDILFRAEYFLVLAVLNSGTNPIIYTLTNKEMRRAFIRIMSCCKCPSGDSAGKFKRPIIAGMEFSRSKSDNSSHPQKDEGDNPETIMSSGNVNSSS
# Sequence of Sphingosine 1-phosphate receptor 5 (Q9H228 whole entry): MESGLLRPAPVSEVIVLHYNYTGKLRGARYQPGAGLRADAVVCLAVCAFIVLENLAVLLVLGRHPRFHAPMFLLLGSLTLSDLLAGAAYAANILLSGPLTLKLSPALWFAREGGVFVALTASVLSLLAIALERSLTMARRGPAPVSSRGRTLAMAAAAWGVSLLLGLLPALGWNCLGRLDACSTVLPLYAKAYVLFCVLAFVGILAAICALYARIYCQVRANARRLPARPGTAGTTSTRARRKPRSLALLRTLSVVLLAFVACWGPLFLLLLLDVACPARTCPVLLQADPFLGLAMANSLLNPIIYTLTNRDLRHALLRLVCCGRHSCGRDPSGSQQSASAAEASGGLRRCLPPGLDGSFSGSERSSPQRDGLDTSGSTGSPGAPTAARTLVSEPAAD
# Sequence of Sphingosine 1-phosphate receptor 3 (Q99500 whole entry): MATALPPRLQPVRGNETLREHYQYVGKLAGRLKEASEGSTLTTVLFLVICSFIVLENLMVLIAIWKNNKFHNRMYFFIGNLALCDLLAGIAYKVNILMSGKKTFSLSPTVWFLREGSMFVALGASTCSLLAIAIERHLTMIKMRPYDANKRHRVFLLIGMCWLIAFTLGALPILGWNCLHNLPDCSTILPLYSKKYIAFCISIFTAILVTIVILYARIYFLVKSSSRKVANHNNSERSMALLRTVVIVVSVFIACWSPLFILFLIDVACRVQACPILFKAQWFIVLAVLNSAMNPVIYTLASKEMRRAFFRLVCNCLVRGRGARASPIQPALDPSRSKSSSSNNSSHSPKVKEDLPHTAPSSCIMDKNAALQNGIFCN
Activity [1],EC50 [2],EC50 [3],EC50 [4],EC50 [5],Structure (SMILES)
,7.4 nM,> 1000 nM,10.2 nM,> 1000 nM,CCCCCCCCc1ccc([C@H]2C[C@H](COP(=O)(O)O)N[C@@H]2CO)cc1
,16.8 nM,> 1000 nM,5.8 nM,> 1000 nM,CCCCCCCCc1ccc([C@@H]2C[C@@H](COP(=O)(O)O)N[C@H]2CO)cc1
,33.1 nM,> 1000 nM,21.3 nM,> 1000 nM,CCCCCCCCc1ccc([C@@H]2C[C@@H](CO)N[C@H]2COP(=O)(O)O)cc1
,347 nM,> 1000 nM,134 nM,> 1000 nM,CCCCCCCCc1ccc([C@H]2C[C@H](CO)N[C@@H]2COP(=O)(O)O)cc1

# Further lines, the molecule ahead of its results:
Structure (SMILES),Activity [1],EC50 [2],EC50 [3],EC50 [4],EC50 [5]
CCCCCCCCc1ccc([C@H]2C[C@H](CO)N[C@@H]2CO)cc1,55%,,,,
CCCCCCCCc1ccc(CC[C@@](N)(CO)COP(=O)(O)O)cc1,,18.6 nM,,,
CCCCCCCCc1ccc([C@@H]2C[C@@H](CO)N[C@H]2CO)cc1,< 0.1%,,,,
CCCCCCCCCCCCC/C=C/[C@@H](O)[C@@H](N)CO,100%,,,,
CCCCCCCCc1ccc(CCC(N)(CO)CO)cc1,13%,,,,
CCCCCCCCCCCCC/C=C/[C@@H](O)[C@@H](N)COP(=O)(O)O,,7.9 nM,1.6 nM,,0.55 nM
